Values quoted from earlier work as cited in patent publication US20070092561A1, “Water-Soluble Aspirin Composition” (priority 2005, published 2007).
Where two headings read alike, the source gives them in different places.

SMILES: CC(=O)Oc1ccccc1C(=O)O [aspirin]
- occurrence of side-effects (gastric irritation, inflammation, heartburn, nausea, pain) (aspirin users): 2-10%
- occurrence of side-effects (gastric irritation, inflammation, heartburn, nausea, pain) (in chronic arthritis): about 25%
